We go through one compound from US11571443B2, “Phosphorylated tri-block copolymers with antimicrobial properties” (THE UNIVERSITY OF CHICAGO, priority 2016, dated 2023).

Molecules are shown by their SMILES. Entries after “also recorded” stand apart in the source; their conditions may differ.

For one experiment, the system named is human pathogen community. The experiment is described as follows: Mice with 30% hepatectomy and intestinal infection with human pathogen community, polymers in drinking water. The class given is in vivo.
For experiment [1], the system named is Enterococcus faecalis collagenolytic strains (E2 and E27). As to the kind of experiment: Collagenase production of collagenolytic Enterococcus faecalis, overnight incubation. The settings on record: in vitro. The class given is cell-based.
The test system of another experiment is Enterococcus faecalis. The experiment is described as follows: Growth of Enterococcus faecalis. The class given is cell-based. As to conditions: in vitro. The method, then: The inability of PPi-6 to suppress the collagenolytic activity of E. faecalis in vitro relates to its inability in vivo to improve anastomotic healing. […] The efficacy of this compound in vivo correlated to its ability to profoundly suppress collagenase activity in these strains […]. […] Actually, PPi-6 at concentrations of >2 mM even suppressed the E. faecalis growth.

The test system of experiment [2] is S. marcescens. The settings on record: cited from earlier work.
For experiment [3], the system named is P. aeruginosa. The settings on record: cited from earlier work.
Experiment [4] has as its system S. marcescens. The settings on record: supplementation in the drinking water; cited from earlier work.
Experiment [5] relates to P. aeruginosa. The settings on record: supplementation in the drinking water; cited from earlier work.
The next experiment deals with E. faecalis E2. The settings on record: oral administration.
Where [6] appears, read: 3% PPi6 or 1% polymer in drinking water, POD2, SAH+PC mice.

Protocol for E. faecalis E2: Next, the compound was tested in a mouse model of E. faecalis-mediated anastomotic leak by providing 1% ABA-PEG20k-Pi20 in drinking water. At post-operative day (POD) 7, anastomotic healing was assessed and the total amount of E. faecalis present at the anastomotic site and the percentage of E. faecalis expressing the collagenolytic phenotype were determined.
Two groups of mice were involved in this study. All mice were subjected to colon anastomosis followed by an enema of E. faecalis E2 at POD1. The first group received water, and the second group received 1% ABA-PEG20k-Pi20 dissolved in water. At the time of sacrifice at POD7, the tissues and luminal contents were collected at the site of anastomosis, homogenized, and used for culturing. Total Enterococcus colonization at the anastomosis site and luminal content were determined by culture analysis using Enterococcal selective plates (BD Difco) on which all Enterococcus species produced black-pigmented colonies. The CFU count was normalized to the sample weight. […] The collagenolytic population was evaluated on Enterococcal plates covered with skim milk on which collagenolytic species produced black colonies with a clearing halo surrounding the colony.
Description for human pathogen community: (A) FIG. 10(A) provides data showing the extent of cell proliferation in cecal crypts of mice provided with drinking water lacking a phosphorylated PEG (PC 1-3, i.e., pathogen community, plates 1-3 wherein each plate contained 10 or 15 C. elegans worms exposed to pathogens), drinking water containing 3% PPi6 (hexametaphosphate) (PPi6 1-3 refers to plates 1-3 as described above, but exposed to pathogens from mice drinking 3% PPi6), or drinking water containing 1% ABA-PEG20k (ABA-PEG20k-P120 1-3, wherein 1-3 refers to plates 1-3 as described above exposed to pathogen from mice drinking 1% ABA-PEG20k). All groups are SAH+PC (starvation-positive, antibiotic-positive hepatectomy subjects exposed to the pathogen community), POD2 (data from post-operative day 2), and cell proliferation is measured by immunostaining for Ki67.
An experiment was conducted to assess the effects of phosphorylated polymers, i.e., PPi-6 and ABA-PEG20k-Pi20, delivered orally as drinking solutions to mice subjected to 30% hepatectomy and intestinal infection with the human pathogen community. More particularly, the mice were divided into the following groups. Group 1 contained starvation-positive, antibiotic-positive mice receiving no phosphorylated PEG but exposed to the pathogen community. Data from three groups of mice were analyzed. Absolute (FIG. 16A) and relative to crypt depth (FIG. 16B) Ki67 distributions were counted on 90 crypts cumulative of 3 mice in each group. Group 2 contained starvation-positive, antibiotic-positive mice receiving 3% PPi-6 and exposed to the pathogen community. Data from three mice were analyzed, totaling 109 crypts for Ki67 counts. Group 3 contained starvation-positive, antibiotic-positive mice receiving 1% ABA-PEG20k-Pi20 and exposed to the pathogen community. Data from three mice were analyzed, totaling 168 crypts for Ki67 counts.
Stem cell proliferation in cecal crypts, measured by immunostaining for the Ki67 marker, provides an accepted measure of crypt homeostasis.

On to `O=P1([O-])OP(=O)([O-])OP(=O)([O-])OP(=O)([O-])OP(=O)([O-])OP(=O)([O-])O1.[Na+].[Na+].[Na+].[Na+].[Na+].[Na+]` [PPi-6, Sodium hexametaphosphate], for which the “abnormal stem cell proliferation in cecal crypts” value in the experiment on human pathogen community (3% PPi6 or 1% ABA-PEG20k-Pi20 in drinking water) is on record as “inhibit abnormal stem cell proliferation”. For the same compound, the “height of cell proliferation above cecal crypt base (Ki67)” value in the experiment with human pathogen community (setting [6]) worked out at 31.04±1.288 m. The “height of proliferating cells relative to cecal crypt depth (Ki67)” value in the experiment on human pathogen community (setting [6]) is 35.12±1.332 m. Further, in the experiment with human pathogen community (post-operative day 2, 3% PPi6 or 1% ABA-PEG20k-Pi20 in drinking water), the mortality rate stood at 0%. Moreover, the “collagenase production / collagenolytic activity of E. faecalis” value in experiment [1] was “only slightly attenuated collagenase production; also recorded: does not affect the collagenolytic activity”. In addition, the E. faecalis growth result with Enterococcus faecalis is given as “does not promote a growth”. For the same compound, the “concentration that suppressed E. faecalis growth” value with Enterococcus faecalis is more than 2 mM. The collagenase production result in the experiment with S. marcescens [2] and in the experiment with P. aeruginosa [3] was “profoundly suppresses the collagenase production” each time. Besides, the “protection from colonic anastomosis leakage” value in the experiment on S. marcescens [4] and in the experiment with P. aeruginosa [5] was “protects mice from colonic anastomosis leakage” throughout. In addition, in the experiment on E. faecalis E2, the “anastomotic healing / protection in mouse model” value is recorded as “did not improve the anastomotic healing complications”.
